Test results from US12357603B2, “Acyl sulfonamides for treating cancer” (Bayer Aktiengesellschaft, priority 2019, dated 2025).

Assays:
[1] = biological target: Recombinant human His-tagged Kat6a protein (amino acids 194-810) (Homo sapiens (Human), UniProt Q92794); assay: Kat6a activity assay (TR-FRET, acetylation of biotinylated Histone-H4-derived peptide); assay type: biochemical; conditions: 60 mins at 22° C., read-out: KAT6A-DPF/HAT domain IC50 [mol/l] (arithmetic mean)
In short: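 Sf9-expressed human His-Kat6a (aa 194-810) incubated 60 min at 22 °C with compounds (0.01-20 μM) in Tris pH 8 buffer containing 220 nM biotinylated H4 peptide (aa 1-24) and 600 nM acetyl-CoA. Acetyl-K8 detected by TR-FRET (665/620 nm ratio); IC50 by four-parameter fit versus DMSO controls.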

[2] = biological target: Recombinant human GST-tagged Kat6b protein (431-end); assay: Kat6b activity assay (TR-FRET, acetylation of biotinylated Histone-H4-derived peptide); assay type: biochemical; conditions: 30 mins at 22° C., read-out: KAT6B activity assay IC50 [mol/l] (arithmetic mean)
[3] = tested on: ESR1 transcription (luciferase signal in MVLN cells); assay: Repression of ESR1 transcription, luciferase reporter in MVLN cells; assay type: cell-based; conditions: Homo sapiens, MVLN, inhibition of luciferase signal in MVLN cells; arithmetic mean
In short: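 MVLN cells (constitutive ER, stably carrying a Vitellogenin A2 hormone-responsive element–luciferase reporter) treated in duplicate; luciferase read after 24 h. Cell density checked by Alamar Blue fluorescence (530/590 nm) after 2 h to exclude cell-loss effects.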

ZR-75-1 cells = assay: Proliferation assay ZR-75-1 (Alamar Blue, 144 h); assay type: cell-based; conditions: Homo sapiens, ZR-75-1, 144 h, arithmetic mean, read-out: ZR75-1 proliferation assay, EC50 [M] (arithmetic mean)
In short: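 Cells seeded at 3000/well in RPMI 1640 with 2.5% FBS and treated 24 h later across 2.0×10E-5 to 2.0×10E-9 M (9 dilutions, 0.2% DMSO, triplicate). After 144 h at 37 °C, 5% CO2, viability read by Alamar Blue fluorescence at 590 nm following 2 h reagent incubation.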

MDA-MB-436 cells = assay: Proliferation assay MDA-MB-436, negative control cell line (Alamar Blue, 144 h); assay type: cell-based; conditions: Homo sapiens, MDA-MB-436, 144 h, arithmetic mean
In short: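 MDA-MB-436 cells (3000/well, DMEM/Ham's F12 with 2.5% FBS) treated 24 h after plating with compounds at 2.0×10E-5 to 2.0×10E-9 M (9 dilutions, 0.2% DMSO), triplicates, 144 h at 37 °C, 5% CO2. Viability by Alamar Blue, 2 h, fluorescence at 590 nm.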

Chain of Recombinant human His-tagged Kat6a protein (amino acids 194-810) (Q92794 194-810): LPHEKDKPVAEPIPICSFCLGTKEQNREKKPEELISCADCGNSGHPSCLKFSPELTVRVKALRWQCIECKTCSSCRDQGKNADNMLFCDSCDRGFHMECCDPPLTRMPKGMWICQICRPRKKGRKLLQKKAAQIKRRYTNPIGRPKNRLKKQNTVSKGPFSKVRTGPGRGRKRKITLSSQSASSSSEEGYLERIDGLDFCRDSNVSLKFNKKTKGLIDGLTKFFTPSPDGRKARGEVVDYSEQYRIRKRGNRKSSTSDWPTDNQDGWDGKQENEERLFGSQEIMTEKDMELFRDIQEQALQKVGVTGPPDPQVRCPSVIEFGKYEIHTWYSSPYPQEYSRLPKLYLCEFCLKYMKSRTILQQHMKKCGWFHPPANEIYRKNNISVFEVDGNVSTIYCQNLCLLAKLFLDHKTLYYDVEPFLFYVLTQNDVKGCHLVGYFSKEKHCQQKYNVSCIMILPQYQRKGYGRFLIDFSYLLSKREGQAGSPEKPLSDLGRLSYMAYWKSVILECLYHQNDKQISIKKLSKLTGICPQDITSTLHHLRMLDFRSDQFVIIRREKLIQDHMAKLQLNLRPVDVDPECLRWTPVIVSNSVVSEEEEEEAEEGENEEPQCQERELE

## CN(C)c1ccc2cc(C(=O)NS(=O)(=O)c3ccccc3OCC(F)F)oc2c1 [Example 75, N-[2-(2,2-Difluoroethoxy)benzene-1-sulfonyl]-6-(dimethylamino)-1-benzofuran-2-carboxamide]
[1]
  IC50: 163 nM
[2]
  IC50: 246 nM
[3]
  IC50: 130 nM
ZR-75-1 cells
  EC50: 1.65e-07 M
MDA-MB-436 cells
  EC50: > 20000 nM

## CC(C)COc1ccccc1S(=O)(=O)NC(=O)c1cc2ccc(N(C)C)cc2o1 [Example 76, 6-(Dimethylamino)-N-[2-(2-methylpropoxy)benzene-1-sulfonyl]-1-benzofuran-2-carboxamide]
[1]
  IC50: 88.7 nM
[2]
  IC50: 190 nM
[3]
  IC50: 146 nM
ZR-75-1 cells
  EC50: 1.95e-07 M
MDA-MB-436 cells
  EC50: > 20000 nM

## CC(C)c1ccccc1S(=O)(=O)NC(=O)c1cc2ccc(N(C)C)cc2o1 [Example 77, 6-(Dimethylamino)-N-[2-(propan-2-yl)benzene-1-sulfonyl]-1-benzofuran-2-carboxamide]
[1]
  IC50: 272 nM
[2]
  IC50: 546 nM
[3]
  IC50: 152 nM
ZR-75-1 cells
  EC50: 1.48e-06 M
MDA-MB-436 cells
  EC50: > 20000 nM

## CCOc1ccc(I)cc1S(=O)(=O)NC(=O)c1cc2ccc(N(C)C)cc2o1 [Example 78, 6-(Dimethylamino)-N-(2-ethoxy-5-iodobenzene-1-sulfonyl)-1-benzofuran-2-carboxamide]
[1]
  IC50: 32.7 nM
[2]
  IC50: 87 nM
[3]
  IC50: 153 nM
ZR-75-1 cells
  EC50: 2.79e-06 M
MDA-MB-436 cells
  EC50: > 20000 nM

## CN(C)c1ccc2cc(C(=O)NS(=O)(=O)c3ccccc3OC(F)F)oc2c1 [Example 79, N-[2-(Difluoromethoxy)benzene-1-sulfonyl]-6-(dimethylamino)-1-benzofuran-2-carboxamide]
[1]
  IC50: 188 nM
[2]
  IC50: 200 nM
[3]
  IC50: 164 nM
ZR-75-1 cells
  EC50: 2.22e-07 M
MDA-MB-436 cells
  EC50: > 20000 nM

## CCOc1cccc(-c2ccccc2)c1S(=O)(=O)NC(=O)c1cc2ccc(N(C)C)cc2o1 [Example 80, 6-(Dimethylamino)-N-(3-ethoxy[1,1′-biphenyl]-2-sulfonyl)-1-benzofuran-2-carboxamide]
[1]
  IC50: 73.8 nM
[2]
  IC50: 68.8 nM
[3]
  IC50: 172 nM
ZR-75-1 cells
  EC50: 3.29e-07 M
MDA-MB-436 cells
  EC50: > 20000 nM

## CCOc1ncccc1S(=O)(=O)NC(=O)c1cc2ccc(N(C)C)cc2o1 [Example 81, 6-(Dimethylamino)-N-(2-ethoxypyridine-3-sulfonyl)-1-benzofuran-2-carboxamide]
[1]
  IC50: 320 nM
[2]
  IC50: 377 nM
[3]
  IC50: 188 nM
ZR-75-1 cells
  EC50: 4.06e-07 M
MDA-MB-436 cells
  EC50: > 20000 nM

## CN(C)c1ccc2cc(C(=O)NS(=O)(=O)c3ccccc3OC3COC3)oc2c1 [Example 82, 6-(Dimethylamino)-N-{2-[(oxetan-3-yl)oxy]benzene-1-sulfonyl}-1-benzofuran-2-carboxamide]
[1]
  IC50: 237 nM
[2]
  IC50: 265 nM
[3]
  IC50: 201 nM
ZR-75-1 cells
  EC50: 2e-07 M
MDA-MB-436 cells
  EC50: > 20000 nM

## CN(C)c1ccc2cc(C(=O)NS(=O)(=O)c3ccccc3Oc3ccccc3)oc2c1 [Example 85, 6-(Dimethylamino)-N-(2-phenoxybenzene-1-sulfonyl)-1-benzofuran-2-carboxamide]
[1]
  IC50: 115 nM
[2]
  IC50: 186 nM
[3]
  IC50: 232 nM
ZR-75-1 cells
  EC50: 4e-07 M
MDA-MB-436 cells
  EC50: > 20000 nM

## COc1ccc(Cn2cccn2)cc1S(=O)(=O)NC(=O)c1cc2ccc(N(C)C)cc2o1 [Example 86, 6-(Dimethylamino)-N-{2-methoxy-5-[(1H-pyrazol-1-yl)methyl]benzene-1-sulfonyl}-1-benzofuran-2-carboxamide]
[1]
  IC50: 64.9 nM
[2]
  IC50: 80 nM
[3]
  IC50: 235 nM
ZR-75-1 cells
  EC50: 1.57e-07 M
MDA-MB-436 cells
  EC50: > 20000 nM

## Cc1cnc2c(S(=O)(=O)NC(=O)c3cc4ccc(N(C)C)cc4o3)cccc2c1 [Example 87, 6-(Dimethylamino)-N-(3-methylquinoline-8-sulfonyl)-1-benzofuran-2-carboxamide]
[1]
  IC50: 97.3 nM
[2]
  IC50: 104 nM
[3]
  IC50: 249 nM
ZR-75-1 cells
  EC50: 4.18e-07 M
MDA-MB-436 cells
  EC50: > 20000 nM

## CCOc1ccc([N+](=O)[O-])cc1S(=O)(=O)NC(=O)c1cc2ccc(N(C)C)cc2o1 [Example 88, 6-(Dimethylamino)-N-(2-ethoxy-5-nitrobenzene-1-sulfonyl)-1-benzofuran-2-carboxamide]
[1]
  IC50: 105 nM
[2]
  IC50: 205 nM
[3]
  IC50: 256 nM
ZR-75-1 cells
  EC50: 3.2e-07 M
MDA-MB-436 cells
  EC50: 4650 nM

## CC(C)Oc1cccc(Cl)c1S(=O)(=O)NC(=O)c1cc2ccc(N(C)C)cc2o1 [Example 89, N-{2-chloro-6-[(propan-2-yl)oxy]benzene-1-sulfonyl}-6-(dimethylamino)-1-benzofuran-2-carboxamide]
[1]
  IC50: 131 nM
[2]
  IC50: 172 nM
[3]
  IC50: 279 nM
ZR-75-1 cells
  EC50: 4.45e-07 M
MDA-MB-436 cells
  EC50: > 20000 nM

## CCCCCOc1ccccc1S(=O)(=O)NC(=O)c1cc2ccc(N(C)C)cc2o1 [Example 90, 6-(Dimethylamino)-N-[2-(pentyloxy)benzene-1-sulfonyl]-1-benzofuran-2-carboxamide]
[1]
  IC50: 194 nM
[2]
  IC50: 357 nM
[3]
  IC50: 312 nM
ZR-75-1 cells
  EC50: 8.08e-07 M
MDA-MB-436 cells
  EC50: > 20000 nM

## Cc1ccnc2c(S(=O)(=O)NC(=O)c3cc4ccc(N(C)C)cc4o3)cccc12 [Example 91, 6-(Dimethylamino)-N-(4-methylquinoline-8-sulfonyl)-1-benzofuran-2-carboxamide]
[1]
  IC50: 74.2 nM
[2]
  IC50: 92.2 nM
[3]
  IC50: 365 nM
ZR-75-1 cells
  EC50: 7.79e-07 M
MDA-MB-436 cells
  EC50: > 20000 nM

## CC(C)Cc1ccc2cccc(S(=O)(=O)NC(=O)c3cc4ccc(N(C)C)cc4o3)c2n1 [Example 93, 6-(Dimethylamino)-N-[2-(2-methylpropyl)quinoline-8-sulfonyl]-1-benzofuran-2-carboxamide]
[1]
  IC50: 100 nM
[2]
  IC50: 173 nM
[3]
  IC50: 457 nM
ZR-75-1 cells
  EC50: 8.56e-07 M
MDA-MB-436 cells
  EC50: > 20000 nM

## CCOc1cccnc1S(=O)(=O)NC(=O)c1cc2ccc(N(C)C)cc2o1 [Example 101, 6-(Dimethylamino)-N-(3-ethoxypyridine-2-sulfonyl)-1-benzofuran-2-carboxamide]
[1]
  IC50: 502 nM
[2]
  IC50: 610 nM
[3]
  IC50: 1440 nM
ZR-75-1 cells
  EC50: 1.4e-06 M
MDA-MB-436 cells
  EC50: > 20000 nM

## CN(C)c1cc(F)c2cc(C(=O)NS(=O)(=O)c3ccccc3OC3CC3)oc2c1 [Example 110, N-[2-(Cyclopropyloxy)benzene-1-sulfonyl]-6-(dimethylamino)-4-fluoro-1-benzofuran-2-carboxamide]
[1]
  IC50: 7.48 nM
[2]
  IC50: 3.82 nM
[3]
  IC50: 12.4 nM
ZR-75-1 cells
  EC50: 7.12e-08 M
MDA-MB-436 cells
  EC50: > 20000 nM

## CCCOc1ccccc1S(=O)(=O)NC(=O)c1cc2c(F)cc(N(C)C)cc2o1 [Example 111, 6-(Dimethylamino)-4-fluoro-N-(2-propoxybenzene-1-sulfonyl)-1-benzofuran-2-carboxamide]
[1]
  IC50: 8.93 nM
[2]
  IC50: 19 nM
[3]
  IC50: 15.4 nM
ZR-75-1 cells
  EC50: 4.89e-08 M
MDA-MB-436 cells
  EC50: > 20000 nM

## COc1ccccc1S(=O)(=O)NC(=O)c1cc2c(F)cc(N(C)C)cc2o1 [Example 112, 6-(Dimethylamino)-4-fluoro-N-(2-methoxybenzene-1-sulfonyl)-1-benzofuran-2-carboxamide]
[1]
  IC50: 17.7 nM
[2]
  IC50: 18.1 nM
[3]
  IC50: 45.2 nM
ZR-75-1 cells
  EC50: 4.78e-08 M
MDA-MB-436 cells
  EC50: > 20000 nM

## CCOc1ccc(Br)cc1S(=O)(=O)NC(=O)c1cc2c(F)cc(N(C)C)cc2o1 [Example 113, N-(5-Bromo-2-ethoxybenzene-1-sulfonyl)-6-(dimethylamino)-4-fluoro-1-benzofuran-2-carboxamide]
[1]
  IC50: 7.25 nM
[2]
  IC50: 7.24 nM
[3]
  IC50: 70.3 nM
ZR-75-1 cells
  EC50: 1.02e-07 M
MDA-MB-436 cells
  EC50: > 20000 nM

## COc1ccccc1S(=O)(=O)NC(=O)c1cc2ccc(N(C)C)cc2o1 [Example 114, 6-(Dimethylamino)-N-(2-methoxybenzene-1-sulfonyl)-1-benzofuran-2-carboxamide]
[1]
  IC50: 114 nM
[2]
  IC50: 150 nM
[3]
  IC50: 58 nM
ZR-75-1 cells
  EC50: 1.07e-07 M
MDA-MB-436 cells
  EC50: > 20000 nM

## CCCOc1ccc(C)cc1S(=O)(=O)NC(=O)c1cc2ccc(N(C)C)cc2o1 [Example 115, 6-(Dimethylamino)-N-(5-methyl-2-propoxybenzene-1-sulfonyl)-1-benzofuran-2-carboxamide]
[1]
  IC50: 64.6 nM
[2]
  IC50: 87.2 nM
[3]
  IC50: 64.2 nM
ZR-75-1 cells
  EC50: 7.02e-08 M
MDA-MB-436 cells
  EC50: > 20000 nM

## CCOc1cccc(C)c1S(=O)(=O)NC(=O)c1cc2ccc(N(C)C)cc2o1 [Example 116, 6-(Dimethylamino)-N-(2-ethoxy-6-methylbenzene-1-sulfonyl)-1-benzofuran-2-carboxamide]
[1]
  IC50: 453 nM
[2]
  IC50: 508 nM
[3]
  IC50: 270 nM
ZR-75-1 cells
  EC50: 3.24e-07 M
MDA-MB-436 cells
  EC50: > 20000 nM
